Results published in paper PMC6617776, “Novel Antihypertensive Peptides Derived from Chicken Foot Proteins” (Molecular Nutrition & Food Research, 2019).
Ends that are not written are not given here.

Columns and labels:
[1] = tested on: spontaneously hypertensive rats (SHR); test: Measurement of blood pressure by the tail-cuff method after a single oral dose; format: in vivo, rat; settings: captopril 50 mg kg^−1 bw oral single dose, mean ± SEM, n = 6
Experimental: Male SHR (17–20 weeks old, weighing 350–400 g) were obtained from Charles River Laboratories España S.A. (Barcelona, Spain). The animals were singly housed in animal quarters at 22 °C with a 12 h light–dark period. They were fed with a standard diet based on chow Panlab A04 (Panlab, Barcelona, Spain) and had access to tap water ad libitum.
The SBP and DBP in the animals were measured using the tail‐cuff method 23 with a noninvasive BP system model (Letica, Hospitalet, Barcelona, Spain). The rats were given a single dose of 10 mg kg^−1 body weight (bw) of the synthesized peptides, including VGKPGARAPMY, QVGPLIGRYCG, AVFQHNCQE, LSGPVKF, or AVKILP, dissolved in tap water in a total volume of 1.5 mL. Peptides were administered to the SHR by gastric […] through an acute administration between 9 and 10 in the morning.
Positive control rats received 50 mg kg^−1 bw of captopril, a known ACE‐inhibitor, also dissolved in 1.5 mL of tap water, and the negative control rats received 1.5 mL of tap water. SBP was measured in the rats before peptide administration as well as 2, 4, 6, 8, and 24 h post‐administration. […] The changes in SBP and DBP were expressed as the differences in these variables before and after the administration of the different peptides. […]
Differences between treatments were analyzed by two‐way analysis of variance (two‐way ANOVA). […] Outliers were determined using Grubbs’ test. […]

[2] = target: T1, ACE (angiotensin I‐converting enzyme, EC 3.4.15.1) (Oryctolagus cuniculus, UniProt P12822); test: ACEI activity, fluorimetric assay with o-Abz-Gly-p-Phe(NO2)-Pro-OH; format: biochemical; settings: synthetic peptides; concentration of peptide needed to inhibit 50 % of the original ACE activity
T1 sequence (P12822 34-1310): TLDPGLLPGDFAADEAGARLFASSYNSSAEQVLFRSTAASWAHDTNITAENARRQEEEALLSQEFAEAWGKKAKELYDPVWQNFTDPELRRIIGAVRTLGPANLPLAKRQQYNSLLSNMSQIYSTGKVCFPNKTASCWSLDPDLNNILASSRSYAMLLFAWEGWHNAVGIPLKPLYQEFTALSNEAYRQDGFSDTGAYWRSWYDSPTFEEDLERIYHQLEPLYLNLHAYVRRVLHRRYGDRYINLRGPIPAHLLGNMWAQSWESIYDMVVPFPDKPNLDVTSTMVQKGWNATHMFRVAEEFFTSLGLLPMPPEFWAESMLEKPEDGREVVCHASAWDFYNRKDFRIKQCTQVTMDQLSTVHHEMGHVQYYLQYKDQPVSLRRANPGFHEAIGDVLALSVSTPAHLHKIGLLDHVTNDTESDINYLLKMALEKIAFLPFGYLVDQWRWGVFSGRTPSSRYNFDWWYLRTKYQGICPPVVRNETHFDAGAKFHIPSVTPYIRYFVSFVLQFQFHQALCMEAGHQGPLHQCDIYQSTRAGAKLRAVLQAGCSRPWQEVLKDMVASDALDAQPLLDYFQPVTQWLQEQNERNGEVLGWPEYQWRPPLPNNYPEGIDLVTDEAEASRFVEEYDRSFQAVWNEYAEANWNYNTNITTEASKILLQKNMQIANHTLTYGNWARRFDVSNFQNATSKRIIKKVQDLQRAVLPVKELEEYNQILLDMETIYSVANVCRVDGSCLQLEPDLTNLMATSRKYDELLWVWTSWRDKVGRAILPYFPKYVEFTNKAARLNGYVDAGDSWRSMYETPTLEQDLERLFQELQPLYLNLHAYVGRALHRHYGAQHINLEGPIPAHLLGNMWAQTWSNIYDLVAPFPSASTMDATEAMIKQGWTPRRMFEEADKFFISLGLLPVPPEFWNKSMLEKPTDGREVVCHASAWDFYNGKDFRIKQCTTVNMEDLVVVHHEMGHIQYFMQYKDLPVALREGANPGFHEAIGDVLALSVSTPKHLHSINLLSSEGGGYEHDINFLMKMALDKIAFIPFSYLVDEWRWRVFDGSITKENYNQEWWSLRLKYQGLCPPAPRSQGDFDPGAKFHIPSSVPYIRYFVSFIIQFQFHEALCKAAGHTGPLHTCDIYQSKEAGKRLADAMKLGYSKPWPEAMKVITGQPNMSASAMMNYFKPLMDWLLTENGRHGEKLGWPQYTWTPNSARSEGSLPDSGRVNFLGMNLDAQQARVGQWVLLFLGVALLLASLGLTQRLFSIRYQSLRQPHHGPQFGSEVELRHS
Text: Chicken feet (Gallus gallus domesticus) were provided by a local farm (Granja Gaià, La Riera de Gaià, Spain). Protamex solutions (EC 3.4.21.62 and 3.4.24.28, 1.5 AU g^−1 from Bacillus licheniformis and Bacillus amyloliquefaciens) were kindly provided by Novozymes (Bagsværd, Denmark). ACE (angiotensin I‐converting enzyme, EC 3.4.15.1) was purchased from Sigma‐Aldrich (Madrid, Spain), captopril (PubChem CID: 44093) was purchased from Santa Cruz Biotechnology (Dallas, TX, USA) and o‐aminobenzoylglicil‐p‐nitrofenilalanilprolina (o‐Abz‐Gly‐p‐Phe(NO2)‐Pro‐OH) was provided by Bachem Feinchemikalien (Bubendorf, Switzerland). The synthesized peptides (LSETVV, LSGPVKF, AVKILP, VRWEPAPGPV, VGKPGARAPMY, QVGPLIGRYCG, LGIHPDWQFV, and AVFQHNCQE, purity grade ≥ 90 %) were purchased from Caslo Laboratory ApS (Kongens Lyngby, Denmark). Acetonitrile and trifluoroacetic acid were purchased from Sigma‐Aldrich. All other chemical solvents used were of analytical grade.
ACEI activity was measured according to Mas‐Capdevila et al.21 The fluorescence measurements were performed after 30 min in a multiscan microplate fluorimeter (FLUOstar optima, BMG Labtech, Offeuburg, Germany). The excitation and emission wavelengths were 360 and 400 nm, respectively. The software used to process the data was FLUOstar control (version 1.32 R2, BMG Labtech).
A nonlinear fit was performed on the experimental data to calculate the 50 % inhibitory concentration values (IC50) with the PRISM version 4.02 program for Windows (GraphPad Software, Inc. San Diego, CA, USA). ACEI activity was expressed as a percentage (%) or IC50 (µg µL^−1 solution). The determination of the ACEI activity of the samples was performed at least in duplicate. Data are represented as a mean value ± standard deviation (SD).
Protein content was determined by the bicinchoninic acid method using the standard Pierce BCA Protein Assay (ThermoFisher Scientific). The assay was conducted according to the manufacturer's instructions in a microplate format. A calibration standard curve was prepared with seroalbumin bovine. Determination of the protein content was performed at least in duplicate. The results are expressed as the mean ± SD.

[3] = tested on: ACE; design: method as in earlier work; settings: read-out: ACEI activity IC50 of fermented milk-derived peptides; cited from earlier work

Compound	IC50 [2] [µM]	further results
C[C@H](CS)C(=O)N1CCC[C@H]1C(=O)O [captopril]		maximum decrease in DBP ([1]; 4 h post-administration): −32.97 ± 8.80 mmHg; maximum decrease in SBP ([1]; 6 h post-administration): −33.67 ± 1.94 mmHg
AVFQHNCQE [AVFQHNCQE]	44.8	
AVKILP [AVKILP]	7.1	
LGIHPDWQFV [LGIHPDWQFV]	> 138	
LHLPLP [known antihypertensive fermented milk-derived peptide]		IC50 [3]: 5.5 µM
LSGPVKF [LSGPVKF]	80.9	
QVGPLIGRYCG [QVGPLIGRYCG]	11	
VRWEPAPGPV [VRWEPAPGPV]	> 150	
